Measurements: patent EP4559912A1, “SULFUR-CONTAINING HETEROAROMATIC RING COMPOUND, PHARMACEUTICAL COMPOSITION THEREOF, AND USE THEREOF” (Evopoint Biosciences Co., Ltd., priority 2022, dated 2024)

What follows are molecules tested against His-GST tagged PARG (Homo sapiens, UniProt Q86W56) (assay: In vitro PARG assay (TR-FRET)). Conditions: 4 pM His-GST tagged PARG, 30 nM Bio PARylated PARP1 substrate, 20 min at room temperature, TR-FRET Em 665/Em 615.
Assay type: biochemical
Procedure: The in vitro PARG assay experiment was conducted in a standard 384-well plate with a total volume of 15 µL. To a 384-well plate containing the test compound was added 5 µL of an enzyme reaction mixture (50 mM Tris-HCL pH 7.5, 50 mM KCL, 0.01% Triton X-100, 0.01% BSA, and 4 pM His-GST tagged PARG). The plate was incubated at room temperature for 10 min, and then 5 µL of a substrate mixture (50 mM Tris-HCL pH 7.5, 50 mM KCL, 0.01% Triton X-100, 0.01% BSA, and 30 nM Bio PARylated PARP1) was added to initiate the reaction. The plate was further incubated at room temperature for 20 min, and then 5 µL of a detection reagent was added to terminate the reaction. The detection reagent was prepared from a buffer (50 mM Tris-HCl pH 7.5, 50 mM KCL, 0.01% Triton X-100, and 0.01% BSA), 3 µM compound PDD00017273, 1.5× Mab anti-6HIS XL665 (Cisbio: 61HISXLA), and 1.5× streptavidin terbium cryptate (Cisbio: 610SATLA). The final concentrations of the compound PDD00017273, the 1.5× Mab anti-6HIS XL665 (Cisbio: 61HISXLA), and the 1.5× streptavidin terbium cryptate were 1 µM, 0.5×, and 0.5×, respectively. After incubation in the dark at room temperature for 120 min, TR-FRET signals were measured at Ex 340, Em 665, and Em 615. The ratio for each well was calculated as Em 665/Em 615 (the ratio here corresponds to the ratio of fluorescence signals at the wavelengths).

Chain of His-GST tagged PARG (Q86W56 whole entry): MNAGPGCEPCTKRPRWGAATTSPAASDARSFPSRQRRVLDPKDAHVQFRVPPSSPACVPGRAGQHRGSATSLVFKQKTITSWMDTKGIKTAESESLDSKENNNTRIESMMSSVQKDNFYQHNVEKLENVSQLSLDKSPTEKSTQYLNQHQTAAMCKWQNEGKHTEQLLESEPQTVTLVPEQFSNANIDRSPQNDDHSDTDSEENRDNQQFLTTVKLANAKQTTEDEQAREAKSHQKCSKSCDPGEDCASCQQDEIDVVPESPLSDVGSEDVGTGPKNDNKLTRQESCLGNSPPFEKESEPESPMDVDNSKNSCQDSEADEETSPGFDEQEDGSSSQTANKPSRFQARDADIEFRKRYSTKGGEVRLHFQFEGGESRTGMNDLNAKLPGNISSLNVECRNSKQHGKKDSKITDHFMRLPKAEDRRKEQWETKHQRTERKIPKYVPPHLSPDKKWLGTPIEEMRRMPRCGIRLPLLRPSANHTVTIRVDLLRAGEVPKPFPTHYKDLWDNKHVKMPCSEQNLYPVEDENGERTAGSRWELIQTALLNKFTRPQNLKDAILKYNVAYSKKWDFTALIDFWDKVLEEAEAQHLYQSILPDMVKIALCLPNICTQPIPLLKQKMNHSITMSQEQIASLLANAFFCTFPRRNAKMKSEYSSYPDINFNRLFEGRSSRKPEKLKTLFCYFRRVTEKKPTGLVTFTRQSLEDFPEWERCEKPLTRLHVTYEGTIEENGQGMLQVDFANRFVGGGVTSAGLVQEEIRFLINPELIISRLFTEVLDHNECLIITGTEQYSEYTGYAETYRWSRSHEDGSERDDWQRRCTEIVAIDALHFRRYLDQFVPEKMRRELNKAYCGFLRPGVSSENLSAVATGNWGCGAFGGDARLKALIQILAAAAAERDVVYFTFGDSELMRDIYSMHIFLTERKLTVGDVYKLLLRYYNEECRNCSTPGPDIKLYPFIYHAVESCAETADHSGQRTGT

| Structure (SMILES) | IC50 [nM] |
| --- | --- |
| C[C@@H]1CN(c2cc(S(=O)(=O)NC3(C#N)CC3)cc3c2cnn3-c2nnc(C(F)F)s2)CCN1C(=O)C(O)C1CC1 (single isomer, unassigned) [EVO29534] | < 100 |
| C[C@@H]1CN(c2cc(S(=O)(=O)NC3(C#N)CC3)cc3c2cnn3-c2nnc(C(F)F)s2)CCN1C(=O)C(O)C1CC1 (single isomer, unassigned) [EVO29537] | < 100 |
| CCOC(C(=O)N1CCN(c2cc(S(=O)(=O)NC3(C#N)CC3)cc3c2cnn3-c2nnc(C(F)F)s2)C[C@H]1C)C1CC1 (single isomer, unassigned) [EVO29710P1] | < 100 |
| CCOC(C(=O)N1CCN(c2cc(S(=O)(=O)NC3(C#N)CC3)cc3c2cnn3-c2nnc(C(F)F)s2)C[C@H]1C)C1CC1 (single isomer, unassigned) [EVO29710P2] | < 100 |
| COC(C(=O)N1CCN(c2cc(S(=O)(=O)NC3(C#N)CC3)cc3c2cnn3-c2nnc(C(F)F)s2)C[C@H]1C)C1CC1 (single isomer, unassigned) [EVO29715P1] | < 100 |
| COC(C(=O)N1CCN(c2cc(S(=O)(=O)NC3(C#N)CC3)cc3c2cnn3-c2nnc(C(F)F)s2)C[C@H]1C)C1CC1 (single isomer, unassigned) [EVO29715P2] | < 100 |
| C[C@@H]1CN(c2cc(S(=O)(=O)NC3(C#N)CC3)cc3c2cnn3-c2nnc(C(F)F)s2)CCN1C(=O)C(O)C(C)(C)CF (single isomer, unassigned) [EVO29751P1] | < 100 |
| C[C@@H]1CN(c2cc(S(=O)(=O)NC3(C#N)CC3)cc3c2cnn3-c2nnc(C(F)F)s2)CCN1C(=O)C(O)C(C)(C)CF (single isomer, unassigned) [EVO29751P2] | < 100 |
| C[C@@H]1CN(c2cc(S(=O)(=O)NC3(C#N)CC3)cc3c2cnn3-c2nnc(C(F)F)s2)CCN1C(=O)C(O)C(C)(C)C(F)F (single isomer, unassigned) [EVO29752P1] | < 100 |
| C[C@@H]1CN(c2cc(S(=O)(=O)NC3(C#N)CC3)cc3c2cnn3-c2nnc(C(F)F)s2)CCN1C(=O)C(O)C(C)(C)C(F)F (single isomer, unassigned) [EVO29752P2] | < 100 |
| C[C@@H]1CN(c2cc(S(=O)(=O)NC3(C#N)CC3)cc3c2cnn3-c2nnc(C(F)F)s2)CCN1C(=O)C(O)C(C)(C)CO (single isomer, unassigned) [EVO29790P1] | < 100 |
| C[C@@H]1CN(c2cc(S(=O)(=O)NC3(C#N)CC3)cc3c2cnn3-c2nnc(C(F)F)s2)CCN1C(=O)C(O)C(C)(C)CO (single isomer, unassigned) [EVO29790P2] | < 100 |
| N#CC1(NS(=O)(=O)c2cc(N3CCN(C(=O)CO)CC3)c3cnn(-c4nnc(C(F)F)s4)c3c2)CC1 [EVO29103] | < 100 |
| C[C@@H](O)C(=O)N1CCN(c2cc(S(=O)(=O)NC3(C#N)CC3)cc3c2cnn3-c2nnc(C(F)F)s2)CC1 [EVO29284] | < 100 |
| C[C@@H]1CN(c2cc(S(=O)(=O)NC3(C#N)CC3)cc3c2cnn3-c2nnc(C(F)F)s2)CCN1C(=O)[C@@H](C)O [EVO29285] | < 100 |
| CC(C)C(=O)C(=O)N1CCN(c2cc(S(=O)(=O)NC3(C#N)CC3)cc3c2cnn3-c2nnc(C(F)F)s2)C[C@H]1C [EVO29291] | < 100 |
| C[C@@H]1CN(c2cc(S(=O)(=O)NC3(C#N)CC3)cc3c2cnn3-c2nnc(C(F)F)s2)CCN1C(=O)C(N)=O [EVO29298] | < 100 |
| Cc1nnc(-n2ncc3c(N4CCN(C(=O)[C@@H](N)CO)[C@H](C)C4)cc(S(=O)(=O)NC4(C)CC4)cc32)s1 [EVO29314] | 100 to 500 |
| C[C@H](O)C(=O)N1CCN(c2cc(S(=O)(=O)NC3(C#N)CC3)cc3c2cnn3-c2nnc(C(F)F)s2)C[C@H]1C [EVO29334] | < 100 |
| CC(C)[C@@H](O)C(=O)N1CCN(c2cc(S(=O)(=O)NC3(C#N)CC3)cc3c2cnn3-c2nnc(C(F)F)s2)C[C@H]1C [EVO29335] | < 100 |
| Cc1nnc(-n2ncc3c(N4CCN(C(=O)[C@@H](C)O)[C@H](C)C4)cc(S(=O)(=O)NC4(C#N)CC4)cc32)s1 [EVO29336] | < 100 |
| C[C@@H]1CN(c2cc(S(=O)(=O)NC3(C)CC3)cc3c2cnn3-c2nnc(C(F)F)s2)CCN1C(=O)[C@@H](C)O [EVO29337] | < 100 |
| Cc1nnc(-n2ncc3c(N4CCN(C(=O)[C@@H](C)O)[C@H](C)C4)cc(S(=O)(=O)NC4(C)CC4)cc32)s1 [EVO29338] | < 100 |
| C[C@@H]1CN(c2cc(S(=O)(=O)NC3(C#N)CC3)cc3c2cnn3-c2nnc(C(F)F)s2)CCN1C(=O)C(C)(C)O [EVO29339] | < 100 |
| C[C@H](CO)C(=O)N1CCN(c2cc(S(=O)(=O)NC3(C#N)CC3)cc3c2cnn3-c2nnc(C(F)F)s2)C[C@H]1C [EVO29351] | < 100 |
| CC(C)C(=O)C(=O)N1CCN(c2cc(S(=O)(=O)NC3(C)CC3)cc3c2cnn3-c2nnc(C(F)F)s2)C[C@H]1C [EVO29383] | < 100 |

| Structure (SMILES) | IC50 [nM] |
| --- | --- |
| Cc1nnc(-n2ncc3c(N4CCN(C(=O)C(=O)C(C)C)[C@H](C)C4)cc(S(=O)(=O)NC4(C)CC4)cc32)s1 [EVO29384] | < 100 |
| Cc1nnc(-n2ncc3c(N4CCN(C(=O)C(=O)C(C)C)[C@H](C)C4)cc(S(=O)(=O)NC4(C#N)CC4)cc32)s1 [EVO29385] | < 100 |
| C[C@@H]1CN(c2cc(S(=O)(=O)NC3(C#N)CC3)cc3c2cnn3-c2nnc(C(F)F)s2)CCN1C(=O)C(=O)C1CC1 [EVO29386] | 100 to 500 |
| C[C@@H]1CN(c2cc(S(=O)(=O)NC3(C)CC3)cc3c2cnn3-c2nnc(C(F)F)s2)CCN1C(=O)C(=O)C1CC1 [EVO29387] | < 100 |
| CC(=O)C(=O)N1CCN(c2cc(S(=O)(=O)NC3(C)CC3)cc3c2cnn3-c2nnc(C(F)F)s2)C[C@H]1C [EVO29388] | < 100 |
| C[C@@H]1CN(c2cc(S(=O)(=O)NC3(C#N)CC3)cc3c2cnn3-c2nnc(C(F)F)s2)CCN1C(=O)C(=O)C(C)(C)C [EVO29405] | < 100 |
| C[C@@H]1CN(c2cc(S(=O)(=O)NC3(C)CC3)cc3c2cnn3-c2nnc(C(F)F)s2)CCN1C(=O)C(=O)C(C)(C)C [EVO29406] | < 100 |
| Cc1nnc(-n2ncc3c(N4CCN(C(=O)C(=O)C(C)(C)C)[C@H](C)C4)cc(S(=O)(=O)NC4(C#N)CC4)cc32)s1 [EVO29407] | < 100 |
| Cc1nnc(-n2ncc3c(N4CCN(C(=O)C(=O)C(C)(C)C)[C@H](C)C4)cc(S(=O)(=O)NC4(C)CC4)cc32)s1 [EVO29408] | < 100 |
| CO[C@H](C)C(=O)N1CCN(c2cc(S(=O)(=O)NC3(C#N)CC3)cc3c2cnn3-c2nnc(C(F)F)s2)C[C@H]1C [EVO29409] | < 100 |
| CO[C@H](C)C(=O)N1CCN(c2cc(S(=O)(=O)NC3(C)CC3)cc3c2cnn3-c2nnc(C(F)F)s2)C[C@H]1C [EVO29410] | < 100 |
| CO[C@H](C)C(=O)N1CCN(c2cc(S(=O)(=O)NC3(C#N)CC3)cc3c2cnn3-c2nnc(C)s2)C[C@H]1C [EVO29411] | < 100 |
| CO[C@H](C)C(=O)N1CCN(c2cc(S(=O)(=O)NC3(C)CC3)cc3c2cnn3-c2nnc(C)s2)C[C@H]1C [EVO29412] | < 100 |
| CC(C)C(=O)C(=O)N1CCN(c2cc(S(=O)(=O)NC3(C#N)CC3)cc3c2cnn3-c2nnc(C(F)F)s2)CC1 [EVO29417] | < 100 |
| CO[C@@H](C(=O)N1CCN(c2cc(S(=O)(=O)NC3(C#N)CC3)cc3c2cnn3-c2nnc(C(F)F)s2)C[C@H]1C)C(C)C [EVO29418] | < 100 |
| CO[C@@H](C(=O)N1CCN(c2cc(S(=O)(=O)NC3(C)CC3)cc3c2cnn3-c2nnc(C(F)F)s2)C[C@H]1C)C(C)C [EVO29419] | < 100 |
| CO[C@@H](C(=O)N1CCN(c2cc(S(=O)(=O)NC3(C#N)CC3)cc3c2cnn3-c2nnc(C)s2)C[C@H]1C)C(C)C [EVO29420] | < 100 |
| CO[C@@H](C(=O)N1CCN(c2cc(S(=O)(=O)NC3(C)CC3)cc3c2cnn3-c2nnc(C)s2)C[C@H]1C)C(C)C [EVO29421] | < 100 |
| COC(C)(C)C(=O)N1CCN(c2cc(S(=O)(=O)NC3(C#N)CC3)cc3c2cnn3-c2nnc(C(F)F)s2)C[C@H]1C [EVO29426] | < 100 |
| C[C@@H]1CN(c2cc(S(=O)(=O)NC3(C#N)CC3)cc3c2cnn3-c2nnc(C(F)F)s2)CCN1C(=O)[C@H](O)C(C)(C)C [EVO29451] | < 100 |
| C[C@@H]1CN(c2cc(S(=O)(=O)NC3(C#N)CC3)cc3c2cnn3-c2nnc(C(F)F)s2)CCN1C(=O)[C@](C)(O)C(F)(F)F [EVO29462] | < 100 |
| C[C@@H]1CN(c2cc(S(=O)(=O)NC3(C#N)CC3)cc3c2cnn3-c2nnc(C(F)F)s2)CCN1C(=O)[C@@](C)(O)C(F)(F)F [EVO29463] | < 100 |
| C[C@@H]1CN(c2cc(S(=O)(=O)NC3(C)CC3)cc3c2cnn3-c2nnc(C(F)F)s2)CCN1C(=O)C(C)(C)O [EVO29469] | < 100 |
| C[C@@H]1CN(c2cc(S(=O)(=O)NC3(C)CC3)cc3c2cnn3-c2nnc(C(F)F)s2)CCN1C(=O)[C@](C)(O)C(F)(F)F [EVO29496] | < 100 |
| COC(C)(C)C(=O)N1CCN(c2cc(S(=O)(=O)NC3(C)CC3)cc3c2cnn3-c2nnc(C(F)F)s2)C[C@H]1C [EVO29503] | < 100 |
| CCOC(C)(C)C(=O)N1CCN(c2cc(S(=O)(=O)NC3(C)CC3)cc3c2cnn3-c2nnc(C(F)F)s2)C[C@H]1C [EVO29507] | < 100 |
